Drawing on US8415486B2, “IAP inhibitors” (TetraLogic Pharmaceuticals Corp., priority 2009, dated 2013), this text covers Kd and CC50 for 16 compounds.

For one test, the target named is T1, XIAP BIR-3 (Homo sapiens, UniProt P98170).
T1 construct: 40 nM of the respective IAP BIR3
The test can be described thus: Fluorescence polarization binding to XIAP BIR-3 with labeled peptide AbuRPF-K(5-Fam)-NH2. The following applies: 40 nM BIR3, 5 nM labeled peptide, reported as ranges. How it is done:
(§1) The binding affinities of the compounds are reported as a KD value (μM). Briefly, various concentrations of test peptides were mixed with 5 nM of the fluorescently labeled peptide (i.e., a mutated N-terminal Smac peptide—AbuRPF-K(5-Fam)-NH2) and 40 nM of the respective IAP BIR3 for 15 min at RT in […] of 0.1M Potassium Phosphate buffer, pH 7.5 containing 100 mg/ml bovine g-globulin. Following incubation, the polarization values (mP) were measured on a Victor2V (available from PerkinElmer Life Sciences) using a 485 nm excitation filter and a 520 nm emission filter. The reported binding affinities (KD values) are supplied as ranges (A=<0.1 μM, B=0.1 μM to 1 μM, C=>1 μM to 10 μM, D=>10 μM).

Another test concerns the target T2, cIAP-1 BIR-3 (Homo sapiens, UniProt Q13490).
T2 construct: 40 nM of the respective IAP BIR3
The test can be described thus: Fluorescence polarization binding to cIAP-1 BIR-3 with labeled peptide AbuRPF-K(5-Fam)-NH2. The following applies: 40 nM BIR3, 5 nM labeled peptide, reported as ranges, read-out: KD (c-IAP-1 BIR3). How it is done:
as §1
In general terms: In fluorescence polarisation assays a small probe gives low polarisation when free and higher when bound to something large.

In test [1] the test system is ovarian cancer cell line, SK-OV-3. The test can be described thus: SK-OV-3 cell growth inhibition (MTT, 72 hrs). It is filed as cell-based. The following applies: Homo sapiens, concentration giving 50% cell survival, reported as ranges. How it is done: Compounds of the invention also were tested for their ability to inhibit the growth of an ovarian cancer cell line, SK-OV-3. A known assay previously used for measuring cell growth (as described in Hansen, M. B., Nielsen, S. E., and Berg, K. (1989) J. Immunol. Methods 119, 203-210 and incorporated herein by reference in its entirety) was used. Briefly, SK-OV-3 cells are seeded in 96-well plates in McCoy's medium containing 10% fetal bovine serum albumin (5,000 per well) and incubated overnight at 37° C. The next day, test compounds are added at various concentrations (0.003-10 μM) and the plates are incubated at 37° C. for an additional 72 hrs. This incubation time was considered to be optimal for measuring inhibitory effects of the different compounds tested. 50 microliters of 5 mg/mL MTT reagent is added to each well and the plates are incubated at 37° C. for another three (3) hours. At the end of the three (3) hour incubation period, 50 microliters of DMSO is added to each well to dissolve cells and the optical density (OD) of the wells is measured with a microplate reader (Victor^2 1420, Wallac, Finland) at 535 nm. Cell survival (CS) was calculated using the following equation: CS=(OD treated well/mean OD control wells)×100%.
The CC50 (reported in the following tables), is defined as the drug concentration that results in 50% cell survival (CS), and is derived by calculating the point where the dose-response curve crosses the 50% CS point using GraphPad Prism. The reported CC50 values are supplied as ranges (A=<0.1 μM, B=0.1 μM to 1 μM, C=>1 μM to 10 μM, D=>10 μM).

The structures appear in SMILES notation.

T2 sequence (Q13490 253-363 limits assumed): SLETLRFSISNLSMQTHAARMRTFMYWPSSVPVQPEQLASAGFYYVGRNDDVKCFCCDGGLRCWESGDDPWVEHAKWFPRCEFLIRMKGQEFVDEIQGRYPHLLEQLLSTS
T1 sequence (P98170 241-356 limits assumed): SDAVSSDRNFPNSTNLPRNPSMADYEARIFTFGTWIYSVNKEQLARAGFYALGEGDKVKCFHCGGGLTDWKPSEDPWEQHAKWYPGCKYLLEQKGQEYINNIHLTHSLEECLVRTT

Regarding `CN[C@@H](C)C(=O)N[C@H](C(=O)N1CC[C@@H]2[C@H]1[C@@H](Oc1ccc(F)c(F)c1)CN2c1ncccn1)C(C)(C)C` [Example 18, N-{1-[6-(3,4-Difluoro-phenoxy)-4-pyrimidin-2-yl-hexahydro-pyrrolo[3,2-b]pyrrole-1-carbonyl]-2,2-dimethyl-propyl}-2-methylamino-propionamide], the Kd at XIAP BIR-3 and on cIAP-1 BIR-3 was less than 100 nM in each case. The CC50 (usually the concentration at which the toxic effect on the cells reaches its halfway point) in test [1] was less than 100 nM.

With `CN[C@@H](C)C(=O)N[C@H](C(=O)N1CC[C@@H]2[C@H]1[C@@H](Oc1ccc(F)c(F)c1)CN2S(C)(=O)=O)C(C)(C)C` [Example 19, N-{1-[6-(3,4-Difluoro-phenoxy)-4-methanesulfonyl-hexahydro-pyrrolo[3,2-b]pyrrole-1-carbonyl]-2,2-dimethyl-propyl}-2-methylamino-propionamide], the Kd on XIAP BIR-3 and on cIAP-1 BIR-3 was less than 100 nM each time. Further, the 50% cytotoxic concentration (CC50) in test [1] was less than 100 nM.

With `CN[C@@H](C)C(=O)N[C@H](C(=O)N1CC[C@@H]2[C@H]1[C@@H](Oc1ccc(F)c(F)c1)CN2S(=O)(=O)CC(C)C)C(C)(C)C` [Example 20, N-{1-[6-(3,4-Difluoro-phenoxy)-4-(2-methyl-propane-1-sulfonyl)-hexahydro-pyrrolo[3,2-b]pyrrole-1-carbonyl]-2,2-dimethyl-propyl}-2-methylamino-propionamide], the Kd at XIAP BIR-3 and on cIAP-1 BIR-3 was less than 100 nM each time. Besides, the CC50 in test [1] is less than 100 nM.

With `CN[C@@H](C)C(=O)N[C@H](C(=O)N1CC[C@@H]2[C@H]1[C@@H](Oc1ccc(F)c(F)c1)CN2C(C)=O)C(C)(C)C` [Example 21, N-{1-[4-Acetyl-6-(3,4-difluoro-phenoxy)-hexahydro-pyrrolo[3,2-b]pyrrole-1-carbonyl]-2,2-dimethyl-propyl}-2-methylamino-propionamide], the dissociation constant Kd – broadly, a measure of binding affinity in units of concentration – is 100 to 1000 nM at XIAP BIR-3 and less than 100 nM at cIAP-1 BIR-3. Besides, the CC50 in test [1] is less than 100 nM.

As for `CN[C@@H](C)C(=O)N[C@H](C(=O)N1CC[C@@H]2[C@H]1[C@@H](Oc1ccc(F)c(F)c1)CN2C(=O)CC(C)C)C(C)(C)C` [Example 22, N-{1-[6-(3,4-Difluoro-phenoxy)-4-(3-methyl-butyryl)-hexahydro-pyrrolo[3,2-b]pyrrole-1-carbonyl]-2,2-dimethyl-propyl}-2-methylamino-propionamide], the dissociation constant Kd on XIAP BIR-3 and at cIAP-1 BIR-3 was less than 100 nM throughout. In test [1], this compound registered a CC50 of less than 100 nM.

For the compound `CNC(=O)N1C[C@H](Oc2ccc(F)c(F)c2)[C@@H]2[C@H]1CCN2C(=O)[C@@H](NC(=O)[C@H](C)NC)C(C)(C)C` [Example 23, 3-(3,4-Difluoro-phenoxy)-4-[3,3-dimethyl-2-(2-methylamino-propionylamino)-butyryl]-hexahydro-pyrrolo[3,2-b]pyrrole-1-carboxylic acid methylamide], the Kd on XIAP BIR-3 and on cIAP-1 BIR-3 was less than 100 nM each time. The same compound gave a CC50 in test [1] of less than 100 nM.

For `CN[C@@H](C)C(=O)N[C@H](C(=O)N1CC[C@@H]2[C@H]1[C@@H](Oc1ccc(F)c(F)c1)CN2C(=O)NC(C)C)C(C)(C)C` [Example 24, 3-(3,4-Difluoro-phenoxy)-4-[3,3-dimethyl-2-(2-methylamino-propionylamino)-butyryl]-hexahydro-pyrrolo[3,2-b]pyrrole-1-carboxylic acid isopropylamide], the Kd at XIAP BIR-3 and on cIAP-1 BIR-3 was less than 100 nM in each case. The same compound displayed a CC50 in test [1] of less than 100 nM.

On to `CN[C@@H](C)C(=O)N[C@H](C(=O)N1CC[C@@H]2[C@H]1[C@@H](Oc1ccc(F)c(F)c1)CN2C(=O)N(C)C)C(C)(C)C` [Example 25, 3-(3,4-Difluoro-phenoxy)-4-[3,3-dimethyl-2-(2-methylamino-propionylamino)-butyryl]-hexahydro-pyrrolo[3,2-b]pyrrole-1-carboxylic acid dimethylamide], for which the Kd at XIAP BIR-3 and on cIAP-1 BIR-3 was less than 100 nM throughout. Moreover, the CC50 in test [1] is less than 100 nM.

Regarding `CNC(=O)N1C[C@H](Oc2ccc(F)cc2)[C@@H]2[C@H]1CCN2C(=O)[C@@H](NC(=O)[C@H](C)NC)C1CCCCC1` [Example 26, 4-[2-Cyclohexyl-2-(2-methylamino-propionylamino)-acetyl]-3-(4-fluoro-phenoxy)-hexahydro-pyrrolo[3,2-b]pyrrole-1-carboxylic acid methylamide], the Kd at XIAP BIR-3 and at cIAP-1 BIR-3 was less than 100 nM throughout. In addition, the CC50 in test [1] was less than 100 nM.

On to `CNC(=O)N1C[C@H](Oc2ccc(F)cc2)[C@@H]2[C@H]1CCN2C(=O)[C@@H](NC(=O)[C@H](C)NC)C(C)(C)C` [Example 27, 4-[3,3-Dimethyl-2-(2-methylamino-propionylamino)-butyryl]-3-(4-fluoro-phenoxy)-hexahydro-pyrrolo[3,2-b]pyrrole-1-carboxylic acid methylamide], for which the Kd on XIAP BIR-3 and on cIAP-1 BIR-3 was less than 100 nM throughout. In addition, in test [1], the CC50 was less than 100 nM.

With `CN[C@@H](C)C(=O)N[C@H](C(=O)N1CC[C@@H]2[C@H]1[C@@H](Oc1ccc(F)cc1)CN2C(=O)NC(C)C)C1CCCCC1` [Example 28, 4-[2-Cyclohexyl-2-(2-methylamino-propionylamino)-acetyl]-3-(4-fluoro-phenoxy)-hexahydro-pyrrolo[3,2-b]pyrrole-1-carboxylic acid isopropylamide], the dissociation constant (Kd) on XIAP BIR-3 and on cIAP-1 BIR-3 was less than 100 nM in each case. In test [1], this compound returned a CC50 of less than 100 nM.

Regarding `CN[C@@H](C)C(=O)N[C@H](C(=O)N1CC[C@@H]2[C@H]1[C@@H](Oc1ccc(F)cc1)CN2C(=O)NC(C)C)C(C)(C)C` [Example 29, 4-[3,3-Dimethyl-2-(2-methylamino-propionylamino)-butyryl]-3-(4-fluoro-phenoxy)-hexahydro-pyrrolo[3,2-b]pyrrole-1-carboxylic acid isopropylamide], the Kd on XIAP BIR-3 and at cIAP-1 BIR-3 was less than 100 nM in each case. The compound further had a half-maximal cytotoxic concentration (CC50) in test [1] of less than 100 nM.

With `CN[C@@H](C)C(=O)N[C@H](C(=O)N1CC[C@@H]2[C@H]1[C@@H](OCc1ccc(F)cc1)CN2C(=O)NCc1ccccc1)C(C)(C)C` [Example 30, 4-[3,3-Dimethyl-2-(2-methylamino-propionylamino)-butyryl]-3-(4-fluoro-benzyloxy)-hexahydro-pyrrolo[3,2-b]pyrrole-1-carboxylic acid benzylamide], the Kd at XIAP BIR-3 and on cIAP-1 BIR-3 was less than 100 nM in each case. The same compound returned a cytotoxic concentration (CC50) in test [1] of less than 100 nM.

As for `CN[C@@H](C)C(=O)N[C@H](C(=O)N1CC[C@H]2NC[C@H](OCc3ccccc3)[C@H]21)C1CCCCC1` [Example 31, (S)—N—((S)-2-((3aR,6S,6aS)-6-(benzyloxy)hexahydropyrrolo[3,2-b]pyrrol-1(2H)-yl)-1-cyclohexyl-2-oxoethyl)-2-(methylamino)propanamide], the Kd on XIAP BIR-3 is 100 to 1000 nM; at cIAP-1 BIR-3, less than 100 nM. In test [1], this compound came in with a CC50 of 100 to 1000 nM.

For the compound `CN[C@@H](CF)C(=O)N[C@H](C(=O)N1CC[C@@H]2[C@H]1[C@@H](OCc1ccccc1)CN2C(=O)OC(C)(C)C)C1CCCCC1` [Example 32, 3-Benzyloxy-4-[2-cyclohexyl-2-(3-fluoro-2-methylamino-propionylamino)-acetyl]-hexahydro-pyrrolo[3,2-b]pyrrole-1-carboxylic acid tert-butyl ester], the Kd at XIAP BIR-3 and on cIAP-1 BIR-3 was less than 100 nM in each case. For the same compound, in test [1], the CC50 was 100 to 1000 nM.

Take `CN[C@@H](CF)C(=O)N[C@H](C(=O)N1CC[C@H]2NC[C@H](OCc3ccccc3)[C@H]21)C1CCCCC1` [Example 33, N-[2-(6-Benzyloxy-hexahydro-pyrrolo[3,2-b]pyrrol-1-yl)-1-cyclohexyl-2-oxo-ethyl]-3-fluoro-2-methylamino-propionamide]: the Kd on XIAP BIR-3 is 100 to 1000 nM; at cIAP-1 BIR-3, less than 100 nM. Moreover, the CC50 in test [1] is more than 10000 nM.
